Data on four compounds can be found in patent US4701448A, “Metal salt of organic phosphate and an antihyperlipemic agent containing the same” (Asahi Denka Kogyo Kabushiki Kaisha, priority 1985, dated 1987).

The structures appear in SMILES notation. Read-outs that look alike come from different tables or passages of the source. Some results are limits rather than exact numbers.

By LD50 is commonly meant the dose expected to kill half of the subjects tested. Higher therefore signals a less toxic substance.

The nature of data set [1]: Acidity (pKa) of CB3A. The data set is classed as physicochemical.
A short description of data set [2]: Absorbability and effect (statement in words).
Data set [3] deals with synthesis of cholesterol. The note with it: in words; Japanese Patent Application No. 165490/1983, J. Antibiotics 38, 328-332 (1985); cited from earlier work.
For data set [4], the system named is mouse. Nature of the data set: Acute toxicity, mouse. The data set is classed as in vivo. From the text: (§1) The acute toxicity of the metal salt of CB3A and of CK3A was examined by orally or peritoneally administrating an aqueous solution or dispersion thereof the results are shown in Table 2.
(§2) a . . . per os (oral administration)
(§3) b . . . intraperitoneal injection

The test system of data set [5] is rat. Nature of the data set: Acute toxicity, rat. The data set is classed as in vivo.
Text: as §1, §2, §3

Data set [6] is described as follows: Stability, 5 weeks at 45° C. and humidity of 80% (HPLC remaining rate). Type of data set: physicochemical. Conditions: after 5 weeks, humidity of 80%, 50400 min. How it is done:
One gram each of CB3A, CK3A and various metal salts thereof was placed in a beaker and the beaker was allowed to stand for 5 weeks in a constant temperature and humidity bath controlled at a temperature of 45° C. and a humidity of 80%. After 5 weeks, a remaining rate of the compound was analyzed quantitatively with a high performance liquid chromatography "Tri rotar" manufactured by Nippon Bunko K. K. (Japan).
A0 = initial amount of the compound prior to standing in the constan
temperature and humidity bath
A1 = final amount of the compound after 5 weeks

In data set [7] the test system is serum cholesterol. Nature of the data set: Serum cholesterol lowering activity, oral, rabbit, 5 successive days. The data set is classed as in vivo. The note with it: two times a day, 5 days. How it is done: (1) Serum cholesterol lowering activity the metal salt of organic phosphate according to the present invention was orally administered to a rabbit (body weight of about 3 Kg) two times a day (at 9:00 a.m. and 4:00 p.m.) for 5 successive days. After 5 days, blood was sampled and the total cholesterol value in serum was measured in a conventional manner.

Data set [8] is described as follows: Water solubility, hygroscopic property and stability (statements in words). The data set is classed as physicochemical.

`CCC(C)C(=O)OC1CCC=C2C=CC(C)C(CCC(CC(O)CC(=O)O)OP(=O)(O)O)C21` (stereo not shown) [CB3A, reference compound]: the pKa in data set [1] (carboxylic acid group in CB3A molecule, read-out: pKa3) was determined as 7.1; in data set [1] (phosphoric acid group in CB3A molecule, read-out: pKa1) it was 2.2; in data set [1] (phosphoric acid group in CB3A molecule, read-out: pKa2) it was 5. Moreover, the absorbability and effect result in data set [2] is “unsatisfactory”. Further, the “activity of inhibiting the synthesis of cholesterol” value in data set [3] is reported as “strong activity of inhibiting the synthesis of cholesterol”. Besides, the LD50 in data set [4] (intraperitoneal injection) is on record as more than 500 mg/kg; in data set [4] (per os (oral administration)) it was more than 2000 mg/kg; in data set [5] (intraperitoneal injection) it was more than 500 mg/kg; in data set [5] (per os (oral administration)) it was more than 2000 mg/kg. In data set [6], this compound registered a Remaining rate of 14%. The figures for the “Total Serum cholesterol lowering rate” value in data set [7] (1.5 mg/kg/day) and in data set [7] (6 mg/kg/day) were 9.4% and 23.9%, respectively. In addition, the stability entry in data set [8] (listed as CB3K) is reported as “unstable”.
Turning to `CCC(C)C(=O)OC1CCC=C2C=CC(C)C(CCC(CC(O)CC(=O)OC)OP(=O)(O)O)C21` (stereo not shown) [CB3A methyl ester], in data set [3], the “activity of inhibiting the synthesis of cholesterol” value is listed as “strong activity of inhibiting the synthesis of cholesterol”.
In the case of `CCC(C)C(=O)OC1CC(C)C=C2C=CC(C)C(CCC(CC(O)CC(=O)OC)OP(=O)(O)O)C21` (stereo not shown) [CK3A methyl ester], the “activity of inhibiting the synthesis of cholesterol” value in data set [3] is listed as “strong activity of inhibiting the synthesis of cholesterol”.
For the compound `CCC(C)C(=O)OC1CC(C)C=C2C=CC(C)C(CCC(CC(O)CC(=O)O)OP(=O)(O)O)C21` (stereo not shown) [CK3A, reference compound], the absorbability and effect entry in data set [2] was “unsatisfactory”. Besides, in data set [3], the “activity of inhibiting the synthesis of cholesterol” value is “strong activity of inhibiting the synthesis of cholesterol”. The LD50 in data set [4] (intraperitoneal injection) is recorded as more than 500 mg/kg; in data set [4] (per os (oral administration)), more than 2000 mg/kg; in data set [5] (intraperitoneal injection), more than 500 mg/kg; in data set [5] (per os (oral administration)), more than 2000 mg/kg. The Remaining rate in data set [6] came out at 13%. The entries for the “Total Serum cholesterol lowering rate” value in data set [7] (1.5 mg/kg/day) and in data set [7] (6 mg/kg/day) were 9.7% and 24.4%, respectively. For the same compound, the stability entry in data set [8] is on record as “unstable”.
